Assay results taken from patent US7445931B2, “Compositions and methods for enrichment of neural stem cells using ceramide analogs” (Bresagen, Inc., priority 2002, dated 2008).

Key:
[1] = tested on: differentiating ES-J1 cells; test: Apoptosis (TUNEL staining, cell death) in differentiating mouse ES cells incubated with ceramide analogs; type: cell-based; conditions: for number of TUNEL stained cells: 15 hours with 75 μM S16 or S18, or 35 μM C2-ceramide
Experimental: In vitro neural differentiation of mouse ES cells (ES-J1, ES-D3) followed a serum deprivation protocol as described previously (Hancock, et al., 2000 Biochem. Biophys. Res. Commun., 271: 418-421). The differentiation stages are outlined in FIG. 2. Briefly, ES cells were grown on gamma-irradiated feeder fibroblasts for four days in Knockout DMEM/15% Knockout serum replacement, supplemented with ESGRO (LIF; Chemicon; Cat No. ESG1106) at a concentration of 10^3 units/ml medium. ES cells were then grown for another four days on gelatin-coated bacterial culture dishes without a fibroblast feeder layer, and were then grown for three days in Knockout DMEM/15% heat-inactivated ES qualified Fetal Bovine Serum, supplemented with 10^3 units LIF per ml of medium. Upon trypsinization, ES cells were transferred to bacterial culture dishes without gelatin, and embryoid body (EB) formation was induced for four days in Knockout DMEM/10% heat-inactivated ES qualified FBS without LIF (EB4 stage). On the fifth day, floating and loosely attached EBs were rinsed off and transferred to tissue culture dishes. The EBs were allowed to attach to the tissue culture dish surface by incubation for another 24 hours in Knockout DMEM with 10% heat-inactivated ES qualified fetal bovine serum. Neural differentiation due to serum deprivation was induced by cultivation of the EBs for three days in DME/12 (50/50), supplemented with 1×N2 (Invitrogen/Life Technologies; Cat No. 17502, dilution of 1:100) but without serum (EB8 stage). Serum-deprived EBs were then trypsinized, plated on poly-L-ornithine/laminin-coated tissue culture dishes and grown for four days in DMEM/F12 (50/50), supplemented with N2 and 10 ng/ml FGF-2, but without serum. This incubation period is referred to as neuroprogenitor (NP) stage due to commitment of neuroepithelial precursor cells to neuroprogenitor cells, and/or due to the selective expansion of neural progenitor cells in the FGF-2 containing serum-free medium. These cells have committed during the EB stages and were expanded during the NP stage. NPs grown for 48 hours upon replating of trypsinized EBs were referred to as the NP2 stage. On the fifth day of NP formation, the medium was changed to Neurobasal (Invitrogen/Life Technologies; Cat No. 21103-049), with 5% heat-inactivated FBS, and the cells were incubated for another seven days. During this time, NPs fully differentiate to glial cells and neurons. Cells cultured for 24 hours or 96 hours upon changing the medium were referred to as the D1 or D4 stage, respectively.
ES cells were cultured and differentiated to the EB4, EB8, NP2, or D4 stage following the protocol as described above. The ceramide analog S18 was dissolved in ethanol at a concentration of 100 mM and then added to the cells at a final concentration of 75 μM in medium. The cells at the EB8 stage were incubated for 48 hours in the presence of the ceramide analog and were then transplanted into mouse brains.
Differentiating ES cells were grown on cover slips and fixed with 4% paraformaldehyde in phosphate-buffered saline (PBS). Fixed cells were permeabilized with 0.5% Triton X-100 in PBS for 5 minutes at room temperature and unspecific binding sites were saturated by incubation with 3% ovalbumin in PBS for 1 hour at 37° C. The cover slips were then incubated with 5 μg/ml primary antibody (anti-ceramide clone 15B4 mouse IgM, Alexis; anti-PAR-4 rabbit IgG, Santa Cruz; anti-PCNA rabbit IgG, Santa Cruz; anti-nestin clone 401 rat IgG, BD Pharmingen) in 0.1% ovalbumin/PBS, followed by incubation with the appropriate fluorescence-labeled secondary antibody (5 μg/ml Alexa 546 conjugated anti-mouse IgG, Molecular Probes; Alexa 488 conjugated anti-rabbit IgG, Molecular Probes, Cy3 conjugated anti-mouse IgM, Jackson) for 2 hours at 37° C. The nuclei were stained by treatment with 2 μg/ml Hoechst 33258 in PBS for 30 minutes at room temperature. […]

[2] = tested on: differentiating ES cells; test: Apoptosis (TUNEL) in ceramide-depleted differentiating ES cells and its restoration by ceramide or analogs; type: cell-based, mouse
Experimental: Fumonisin B1 (FB1) or myriocin-treated (ceramide-depleted) differentiating ES cells were incubated with natural ceramide. To prepare the natural ceramide, 50 mg of EBs or NPs were resuspended in 500 μl of water, and after phase separation with 500 μl of CHCl3/CH3OH (1:1 by vol.) the neutral lipids were recovered from the lower phase. The neutral lipids were evaporated to dryness with a gentle stream of nitrogen and redissolved in 1 ml of CHCl3. The solution was applied to a silicic acid gel column (0.5 g) and fatty acids and cholesterol washed out with another 15 ml of CHCl3 (Dasgupta and Hogan, 2001 J. Lipid Res., 42:301-308). The ceramide fraction was then eluted with 20 ml of CHCl3/acetone (9:1, by vol.), evaporated to dryness, and the residue (approximately 6 nmoles of ceramide) dissolved in 20 μl of ethanol containing 2% dodecane (vol./vol.). Aliquots of 5 μl were mixed with 1 ml of medium, yielding a final concentration of 1.5 μM natural ceramide for induction of apoptosis (Ji et al., 1995 FEBS Lett., 358:211-214).
Differentiating ES cells at the EB8 cells were dissociated and grown for 24 hours on laminin/ornithin-coated cover slips (NP1 stage) in DMEM/F12 (50/50), supplemented with 1×N2 and 20 ng/ml FGF-2. Cells were incubated for 3 hours with 10 μM bromodeoxyuridine (BrdU) and the TUNEL assay or immunostainings performed after 5 hours of incubation. For immunostaining, cells were fixed with 4% paraformaldehyde in phosphate-buffered saline (PBS). Fixed cells were permeabilized with 0.2% Triton X-100 in PBS for 5 minutes at room temperature and immunostaining performed as described previously (Bieberich et al., 2001 J. Biol. Chem., 276:44396-44404). The nuclei were stained by treatment with 2 μg/ml Hoechst 33258 in PBS for 30 minutes at room temperature. Apoptotic nuclei were stained using the fluorescein FragEL TUNEL assay according to instructions of the manufacturer (Oncogene).
The degree of apoptosis in differentiating ES cultures was determined since it was previously proposed that ceramide elevation induces apoptosis in NPs (Bieberch et al., 2001 J. Biol. Chem., 276:44396-44404). […] Apoptosis was elevated at the EB8 stage ([…]), and was highest at the NP2 stage (35+/−5%). […] Apoptosis was restored by the addition of 30 μM N-acetyl sphingosine (C2-ceramide), 80 μM of the novel ceramide analog N-oleoyl serinol (S18), or 1 μM of natural ceramide that was extracted from differentiating ES cells.

[3] = FB1-treated cells at the NP2 stage

`CCCCCCCC/C=C\CCCCCCCC(=O)NC(CO)CO` [S18, N-(2-hydroxy-1-(hydroxymethyl)ethyl)-oleoylamide] was tested. Which cell death ([1]; EB8 and NP2 stages, 20 hours with 75 μM S18) did it give?
The cell death was “high degree of cell death”.

What about the “number of TUNEL stained cells” value ([1]; EB8 stage) of the same compound?
The value was 45±10%.

And the “number of TUNEL stained cells” value ([1]; NP2 stage)?
The value was 70±10%.

What about the “effect on differentiated neurons (cell death)” value ([1]; differentiated neurons, 20 hours with 75 μM S18) of the same compound?
The value was “unaffected”.

What about the “dependence of apoptosis on PAR-4 expression” value [2, 3] of the same compound?
The value was “only seen in cells that expressed PAR-4”.

And the “number of PAR-4 positive cells” value [2, 3]?
The value was “did not alter the number of PAR-4 positive cells”.

And the “restoration of apoptosis in FB1-treated cells” value ([2]; NP2 stage, 30 μM C2-ceramide, 80 μM S18, or 1 μM natural ceramide)?
The value was “restored”.

And the “concentration of endogenous ceramide” value ([2]; S18 incubation of FB1-treated cells at the NP2 stage)?
Its value is “did not alter the concentration of endogenous ceramide”.
